Values after ≈ are worked out from the molar mass of the structure shown. Read-outs that look alike come from different tables or passages of the source.

This passage reports MIC results from patent US12629400B2, “Pharmaceutical compositions and methods for treating or preventing bacterial infections in humans and in animals” (LaGray, Inc., priority 2023, dated 2026).

Format in all cases: cell-based
One assay has as its system Legionella pneumophila. Kind of assay: microbe, parasite or virus in culture.
For another assay, the system named is Enterococcus faecium. Kind of assay: Agar dilution antibacterial susceptibility (MIC). For orientation: In agar dilution, organisms are placed on agar that contains the substance at set levels.
In a further assay the test system is Klebsiella pneumoniae. Kind of assay: Agar dilution antibacterial susceptibility (MIC).
In a further assay the test system is Chlamydia pneumoniae. Kind of assay: Agar dilution antibacterial susceptibility (MIC).
For the next assay, the system named is Moraxella catarrhalis. Kind of assay: Agar dilution antibacterial susceptibility (MIC).
Another assay relates to S. aureus (MRSA). Kind of assay: Agar dilution antibacterial susceptibility (MIC). The following applies: Staphylococcus aureus.
The next assay has as its system Streptococcus pyogenes. Kind of assay: Agar dilution antibacterial susceptibility (MIC).
The next assay has as its system E. faecium (VRE). The experiment in a line: Agar dilution antibacterial susceptibility (MIC). Particulars: Enterococcus faecium.
In the next assay the test system is Hemophilus influenzae. The experiment in a line: Agar dilution antibacterial susceptibility (MIC). The following applies: Haemophilus influenzae.
In another assay the test system is Streptococcus pneumoniae. The experiment in a line: Agar dilution antibacterial susceptibility (MIC).
The test system of the next assay is S. pneumoniae (DRSP). The experiment in a line: Agar dilution antibacterial susceptibility (MIC). The following applies: Streptococcus pneumoniae.
In another assay the test system is Staphylococcus aureus. Kind of assay: Agar dilution antibacterial susceptibility (MIC).
For another assay, the system named is Clostridium difficile. Kind of assay: Agar dilution antibacterial susceptibility (MIC). Particulars: Clostridioides difficile.
Setting [1] is: S. aureus (MRSA), agar dilution, read-out: MIC.
The mark [2] stands for this setting: E. faecium (VRE), agar dilution, read-out: MIC.
[3] abbreviates: Hemophilus influenzae, agar dilution, read-out: MIC.
The mark [4] stands for this setting: S. pneumoniae (DRSP), agar dilution, read-out: MIC.

Turning to `O=C(O)c1cn(C2CC2)c2cc(N3CCNCC3)c(F)cc2c1=O` [Ciprofloxacin, ciprofloxacin], the MIC is 0.06 µg/mL (≈ 0.181 µM) against Legionella pneumophila; 0.5 µg/mL (≈ 1.51 µM) with Enterococcus faecium (agar dilution, read-out: MIC); 0.06 µg/mL (≈ 0.181 µM) in the assay on Klebsiella pneumoniae (agar dilution, read-out: MIC); 0.12 µg/mL (≈ 0.362 µM) in the assay with Chlamydia pneumoniae (agar dilution, read-out: MIC); 0.25 µg/mL (≈ 0.754 µM) in the assay on Moraxella catarrhalis (agar dilution, read-out: MIC); 32 µg/mL (≈ 96.6 µM) in the assay with S. aureus (MRSA) (setting [1]). Besides, the MIC in the assay on Streptococcus pyogenes (agar dilution, read-out: MIC) was 0.5 µg/mL (≈ 1.51 µM); in the assay with E. faecium (VRE) (setting [2]), 2 µg/mL (≈ 6.04 µM); in the assay on Hemophilus influenzae (setting [3]), 0.15 µg/mL (≈ 0.453 µM); in the assay with Streptococcus pneumoniae (agar dilution, read-out: MIC), 0.13 µg/mL (≈ 0.392 µM); in the assay on S. pneumoniae (DRSP) (setting [4]), 2 µg/mL (≈ 6.04 µM); in the assay on Staphylococcus aureus (agar dilution, read-out: MIC), 0.06 µg/mL (≈ 0.181 µM).
Regarding `CN(C)c1ccc(O)c2c1C[C@H]1C[C@H]3[C@H](N(C)C)C(O)=C(C(N)=O)C(=O)[C@@]3(O)C(O)=C1C2=O` [Minocycline, minocycline], the MIC is 0.12 µg/mL (≈ 0.262 µM) against Legionella pneumophila; 0.5 µg/mL (≈ 1.09 µM) in the assay on Enterococcus faecium (agar dilution, read-out: MIC); 0.13 µg/mL (≈ 0.284 µM) in the assay with Klebsiella pneumoniae (agar dilution, read-out: MIC); 0.5 µg/mL (≈ 1.09 µM) with Chlamydia pneumoniae (agar dilution, read-out: MIC); 0.03 µg/mL (≈ 0.0656 µM) in the assay on Moraxella catarrhalis (agar dilution, read-out: MIC); 0.5 µg/mL (≈ 1.09 µM) against Clostridium difficile. The MIC stood at 8 µg/mL (≈ 17.5 µM) in the assay with S. aureus (MRSA) (setting [1]); 0.12 µg/mL (≈ 0.262 µM) in the assay with Streptococcus pyogenes (agar dilution, read-out: MIC); 16 µg/mL (≈ 35 µM) in the assay with E. faecium (VRE) (setting [2]); 0.25 µg/mL (≈ 0.546 µM) with Hemophilus influenzae (setting [3]); 0.5 µg/mL (≈ 1.09 µM) in the assay on Streptococcus pneumoniae (agar dilution, read-out: MIC); 16 µg/mL (≈ 35 µM) in the assay with S. pneumoniae (DRSP) (setting [4]). Also, in the assay on Staphylococcus aureus (agar dilution, read-out: MIC), the MIC amounted to 0.25 µg/mL (≈ 0.546 µM).
As to `CN[C@H](CC(C)C)C(=O)N[C@H]1C(=O)N[C@@H](CC(N)=O)C(=O)N[C@H]2C(=O)N[C@H]3C(=O)N[C@H](C(=O)N[C@H](C(=O)O)c4cc(O)cc(O)c4-c4cc3ccc4O)[C@H](O)c3ccc(c(Cl)c3)Oc3cc2cc(c3O[C@@H]2O[C@H](CO)[C@@H](O)[C@H](O)[C@H]2O[C@H]2C[C@](C)(N)[C@H](O)[C@H](C)O2)Oc2ccc(cc2Cl)[C@H]1O` [Vancomycin, vancomycin], the MIC amounted to 0.06 µg/mL (≈ 0.0414 µM) against Legionella pneumophila; 1 µg/mL (≈ 0.69 µM) in the assay with Enterococcus faecium; 0.5 µg/mL (≈ 0.345 µM) in the assay with Klebsiella pneumoniae; 0.5 µg/mL (≈ 0.345 µM) against Chlamydia pneumoniae; 0.01 µg/mL (≈ 0.0069 µM) against Moraxella catarrhalis; 0.5 µg/mL (≈ 0.345 µM) with Clostridium difficile. Besides, the MIC against S. aureus (MRSA) (MRSA) was 2 µg/mL (≈ 1.38 µM); against Streptococcus pyogenes it was 0.06 µg/mL (≈ 0.0414 µM); against E. faecium (VRE) (VRE), 125 µg/mL (≈ 86.3 µM); in the assay with Hemophilus influenzae, 0.06 µg/mL (≈ 0.0414 µM); in the assay on Streptococcus pneumoniae it was 0.25 µg/mL (≈ 0.173 µM); against S. pneumoniae (DRSP) it was 0.5 µg/mL (≈ 0.345 µM). This molecule had an MIC in the assay with Staphylococcus aureus of 0.13 µg/mL (≈ 0.0897 µM).
